According to ChEMBL document CHEMBL1157961, “Nitrogen-containing phorbol esters from Croton ciliatoglandulifer and their effects on cyclooxygenases-1 and -2” (J Nat Prod, 2006):

What was measured:
[1] = biological target: T1, Prostaglandin G/H synthase 1 (Ovis aries, UniProt P05979); experiment: Inhibition of ovine COX1
T1 sequence (P05979 whole entry): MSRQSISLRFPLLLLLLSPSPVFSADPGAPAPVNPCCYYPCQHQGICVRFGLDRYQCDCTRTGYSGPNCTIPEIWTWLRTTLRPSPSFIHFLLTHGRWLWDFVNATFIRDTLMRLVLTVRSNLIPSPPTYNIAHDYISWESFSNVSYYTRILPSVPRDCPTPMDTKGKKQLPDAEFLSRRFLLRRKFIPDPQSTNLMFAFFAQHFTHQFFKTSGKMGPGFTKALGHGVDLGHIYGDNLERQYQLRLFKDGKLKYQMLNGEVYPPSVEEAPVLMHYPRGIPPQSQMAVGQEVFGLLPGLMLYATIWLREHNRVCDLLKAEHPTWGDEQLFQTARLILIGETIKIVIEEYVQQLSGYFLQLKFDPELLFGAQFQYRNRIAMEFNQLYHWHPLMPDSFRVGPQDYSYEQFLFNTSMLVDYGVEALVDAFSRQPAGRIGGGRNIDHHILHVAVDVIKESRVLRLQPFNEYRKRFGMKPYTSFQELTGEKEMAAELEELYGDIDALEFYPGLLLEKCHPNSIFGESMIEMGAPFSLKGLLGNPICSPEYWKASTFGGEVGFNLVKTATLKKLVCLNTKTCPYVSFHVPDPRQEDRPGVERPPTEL

[2] = biological target: T2, Prostaglandin G/H synthase 2 (Homo sapiens, UniProt P35354); experiment: Inhibition of human recombinant COX2
T2 sequence (P35354 whole entry): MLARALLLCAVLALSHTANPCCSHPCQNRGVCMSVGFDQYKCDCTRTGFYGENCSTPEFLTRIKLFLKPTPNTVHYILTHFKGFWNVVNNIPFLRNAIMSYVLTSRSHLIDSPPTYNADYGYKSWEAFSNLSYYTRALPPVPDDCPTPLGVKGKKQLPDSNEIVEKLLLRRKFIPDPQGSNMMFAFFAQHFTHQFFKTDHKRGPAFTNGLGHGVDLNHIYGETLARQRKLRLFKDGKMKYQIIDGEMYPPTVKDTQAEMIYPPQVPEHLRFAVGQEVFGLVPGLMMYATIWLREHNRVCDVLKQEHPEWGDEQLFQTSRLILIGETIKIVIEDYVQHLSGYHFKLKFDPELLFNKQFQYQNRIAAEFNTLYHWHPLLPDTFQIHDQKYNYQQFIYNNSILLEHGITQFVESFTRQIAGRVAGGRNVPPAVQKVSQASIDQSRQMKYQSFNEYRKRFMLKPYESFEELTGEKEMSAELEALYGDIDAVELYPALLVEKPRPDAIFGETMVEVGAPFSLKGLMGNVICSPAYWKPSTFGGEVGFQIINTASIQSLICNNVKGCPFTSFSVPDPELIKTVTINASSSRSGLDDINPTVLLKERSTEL

| SMILES | IC50 [1] | IC50 [2] |
| --- | --- | --- |
| CC(=O)O[C@@]12[C@H](OC(=O)[C@@H](C(C)C)N(C)C)[C@@H](C)[C@]3(O)[C@@H]4C=C(C)C(=O)[C@@H]4CC(CO)=C[C@H]3[C@@H]1C2(C)C | 1 nM | 2200 nM |
| CC(=O)O[C@@]12[C@H](OC(=O)[C@@H](C(C)C)N(C)C)[C@@H](C)[C@@]3(O)[C@@H](C=C(CO)C[C@@]4(O)C(=O)C(C)=C[C@@H]34)[C@@H]1C2(C)C | 1 nM | 2200 nM |
| CC(=O)O[C@@]12[C@H](OC(=O)[C@H](C(C)C)N(C)C)[C@@H](C)[C@]3(O)[C@@H]4C=C(C)C(=O)[C@@H]4CC(CO)=C[C@H]3[C@@H]1C2(C)C | > 100000 nM | > 100000 nM |
| CC(=O)O[C@@]12[C@H](OC(=O)C(=C(C)C)N(C)C)[C@@H](C)[C@]3(O)[C@@H]4C=C(C)C(=O)[C@@H]4CC(CO)=C[C@H]3[C@@H]1C2(C)C |  | > 100000 nM |
